In the NIST ThermoML archive (doi:10.1021/je0499768):

What was measured:
[1] = molar heat capacity at saturation pressure
[2] = Crystal
[3] = Molar enthalpy of transition or fusion; details: Crystal

CCCCCO [pentan-1-ol]
[1]
Details | molar heat capacity [J/K/mol]
84.35 K, Crystal | 65.89
85.06 K, Crystal | 66.25
86.86 K, Crystal | 67.27
89.74 K, Crystal | 68.87
92.58 K, Crystal | 70.39
94.72 K, Crystal | 71.43
95.39 K, Crystal | 71.74
95.42 K, Crystal | 71.88
97.19 K, Crystal | 72.64
98.27 K, Crystal | 73.33
100.1 K, Crystal | 74.14
101.12 K, Crystal | 74.67
102.99 K, Crystal | 75.73
103.99 K, Crystal | 76.36
105.87 K, Crystal | 77.16
106.86 K, Crystal | 77.84
108.76 K, Crystal | 78.64
109.74 K, Crystal | 79.23
111.65 K, Crystal | 79.96
112.62 K, Crystal | 80.53
114.54 K, Crystal | 81.27
115.51 K, Crystal | 81.81
117.45 K, Crystal | 82.55
118.41 K, Crystal | 83.11
120.35 K, Crystal | 83.59
121.31 K, Crystal | 84.26
123.26 K, Crystal | 85.21
124.22 K, Crystal | 85.78
126.17 K, Crystal | 86.52
127.13 K, Crystal | 87.05
129.09 K, Crystal | 87.81
130.04 K, Crystal | 88.35
132 K, Crystal | 89.11
132.96 K, Crystal | 89.63
134.92 K, Crystal | 90.35
135.88 K, Crystal | 90.9
137.85 K, Crystal | 91.65
138.8 K, Crystal | 92.19
140.77 K, Crystal | 92.89
141.73 K, Crystal | 93.48
143.7 K, Crystal | 94.19
144.65 K, Crystal | 94.77
146.63 K, Crystal | 95.55
147.58 K, Crystal | 96.12
149.56 K, Crystal | 96.87
150.51 K, Crystal | 97.45
152.49 K, Crystal | 98.21
153.44 K, Crystal | 98.8
155.42 K, Crystal | 99.58
156.38 K, Crystal | 100.2
158.36 K, Crystal | 101.02
159.31 K, Crystal | 101.61
161.29 K, Crystal | 102.48
162.24 K, Crystal | 103.05
164.23 K, Crystal | 103.98
165.18 K, Crystal | 104.56
167.16 K, Crystal | 105.55
168.11 K, Crystal | 106.11
170.08 K, Crystal | 107.17
171.04 K, Crystal | 107.72
173.01 K, Crystal | 108.87
173.97 K, Crystal | 109.43
175.94 K, Crystal | 110.7
176.89 K, Crystal | 111.3
178.85 K, Crystal | 112.7
179.8 K, Crystal | 113.33
181.73 K, Crystal | 115.01
182.67 K, Crystal | 115.64
184.57 K, Crystal | 118.07
185.5 K, Crystal | 118.77
187.36 K, Crystal | 123.84
188.28 K, Crystal | 124.56
198.65 K, Liquid | 163.65
199.38 K, Liquid | 163.9
200.99 K, Liquid | 163.99
201.72 K, Liquid | 164.4
203.32 K, Liquid | 164.43
204.05 K, Liquid | 164.85
205.65 K, Liquid | 164.91
206.37 K, Liquid | 165.31
207.96 K, Liquid | 165.4
208.68 K, Liquid | 165.79
210.27 K, Liquid | 165.93
210.99 K, Liquid | 166.35
212.58 K, Liquid | 166.46
213.29 K, Liquid | 166.86
214.87 K, Liquid | 167.08
215.58 K, Liquid | 167.46
217.16 K, Liquid | 167.65
217.86 K, Liquid | 168.06
219.44 K, Liquid | 168.24
220.14 K, Liquid | 168.68
221.71 K, Liquid | 168.88
222.41 K, Liquid | 169.28
223.98 K, Liquid | 169.49
224.67 K, Liquid | 169.98
226.24 K, Liquid | 170.19
226.92 K, Liquid | 170.74
228.49 K, Liquid | 170.97
229.17 K, Liquid | 171.45
230.73 K, Liquid | 171.69
231.4 K, Liquid | 172.08
232.96 K, Liquid | 172.37
233.63 K, Liquid | 172.91
235.19 K, Liquid | 173.18
235.85 K, Liquid | 173.67
237.41 K, Liquid | 174
238.06 K, Liquid | 174.45
239.61 K, Liquid | 174.8
240.27 K, Liquid | 175.24
241.81 K, Liquid | 175.57
242.46 K, Liquid | 176.08
244 K, Liquid | 176.53
244.65 K, Liquid | 177.02
246.19 K, Liquid | 177.41
246.83 K, Liquid | 177.9
248.36 K, Liquid | 178.37
249 K, Liquid | 178.81
250.53 K, Liquid | 179.33
251.16 K, Liquid | 179.81
252.69 K, Liquid | 180.35
253.31 K, Liquid | 180.73
254.84 K, Liquid | 180.78
255.46 K, Liquid | 181.29
256.98 K, Liquid | 181.89
257.6 K, Liquid | 182.33
259.12 K, Liquid | 182.97
259.72 K, Liquid | 183.42
261.25 K, Liquid | 184.11
261.84 K, Liquid | 184.56
263.36 K, Liquid | 185.17
263.95 K, Liquid | 185.84
265.47 K, Liquid | 186.38
266.05 K, Liquid | 186.93
267.57 K, Liquid | 187.55
268.14 K, Liquid | 188.12
269.66 K, Liquid | 188.85
270.23 K, Liquid | 189.24
271.74 K, Liquid | 190.03
272.3 K, Liquid | 190.52
273.81 K, Liquid | 190.93
274.36 K, Liquid | 191.79
275.87 K, Liquid | 192.5
276.41 K, Liquid | 193.06
277.92 K, Liquid | 193.85
278.46 K, Liquid | 194.4
279.97 K, Liquid | 195.18
280.49 K, Liquid | 195.74
282 K, Liquid | 196.61
282.51 K, Liquid | 197.04
284.02 K, Liquid | 197.96
284.53 K, Liquid | 198.45
286.03 K, Liquid | 199.37
286.53 K, Liquid | 199.91
288.04 K, Liquid | 200.78
288.52 K, Liquid | 201.35
290.03 K, Liquid | 202.3
290.5 K, Liquid | 202.81
292.01 K, Liquid | 203.82
292.48 K, Liquid | 204.11
293.99 K, Liquid | 205.24
294.44 K, Liquid | 205.79
295.95 K, Liquid | 206.87
296.39 K, Liquid | 207.42
297.91 K, Liquid | 208.52
298.34 K, Liquid | 208.88
299.85 K, Liquid | 210.01
300.27 K, Liquid | 210.28
300.3 K, Liquid | 209.4
300.6 K, Liquid | 209.89
300.81 K, Liquid | 210.54
301.09 K, Liquid | 210.46
301.72 K, Liquid | 211.03
302.2 K, Liquid | 211.81
303.67 K, Liquid | 212.74
304.12 K, Liquid | 213.39
305.6 K, Liquid | 214.44
306.03 K, Liquid | 215.06
307.52 K, Liquid | 216.02
307.94 K, Liquid | 216.66
309.43 K, Liquid | 217.84
309.83 K, Liquid | 218.39
311.32 K, Liquid | 219.47
311.72 K, Liquid | 219.98
313.21 K, Liquid | 221.03
313.59 K, Liquid | 221.54
315.09 K, Liquid | 222.83
315.46 K, Liquid | 223.3
316.96 K, Liquid | 224.55
317.31 K, Liquid | 224.93
318.82 K, Liquid | 226.26
319.16 K, Liquid | 226.53
320.67 K, Liquid | 228
320.99 K, Liquid | 228.31
322.52 K, Liquid | 229.67
322.82 K, Liquid | 229.96
324.36 K, Liquid | 231.42
324.65 K, Liquid | 231.73
326.19 K, Liquid | 233.09
326.46 K, Liquid | 233.41
328.01 K, Liquid | 234.81
328.27 K, Liquid | 235
329.82 K, Liquid | 236.6
330.07 K, Liquid | 236.82
331.62 K, Liquid | 238.27
331.85 K, Liquid | 238.73
333.42 K, Liquid | 239.94
333.63 K, Liquid | 240.3
335.2 K, Liquid | 241.58
335.4 K, Liquid | 241.97
336.98 K, Liquid | 243.24
337.16 K, Liquid | 243.65
338.75 K, Liquid | 244.92
338.92 K, Liquid | 245.3
340.51 K, Liquid | 246.6
340.66 K, Liquid | 246.9
342.27 K, Liquid | 248.02
342.4 K, Liquid | 248.57
344.02 K, Liquid | 249.71
344.13 K, Liquid | 250.3
345.76 K, Liquid | 251.26
345.85 K, Liquid | 252.05
347.5 K, Liquid | 252.83
347.57 K, Liquid | 253.58
349.23 K, Liquid | 254.25
349.27 K, Liquid | 255.13
350.95 K, Liquid | 255.52
350.97 K, Liquid | 256.62
352.66 K, Liquid | 258.17
352.67 K, Liquid | 256.89
354.35 K, Liquid | 259.96
354.38 K, Liquid | 259.82
356.02 K, Liquid | 261.44
356.07 K, Liquid | 261.38
357.7 K, Liquid | 262.72
357.76 K, Liquid | 262.85
359.36 K, Liquid | 264.29
359.43 K, Liquid | 264.36
361.02 K, Liquid | 265.62
361.1 K, Liquid | 265.85
362.67 K, Liquid | 266.89
362.77 K, Liquid | 267.17
364.32 K, Liquid | 268.43
364.43 K, Liquid | 268.78
365.96 K, Liquid | 269.86
366.08 K, Liquid | 270.13
367.59 K, Liquid | 270.92
367.73 K, Liquid | 271.33
369.23 K, Liquid | 271.93
369.37 K, Liquid | 272.76
370.86 K, Liquid | 272.95
371.01 K, Liquid | 274.05
372.64 K, Liquid | 275.14
374.27 K, Liquid | 276.38
375.89 K, Liquid | 277.43
377.52 K, Liquid | 278.66
379.14 K, Liquid | 279.32
380.76 K, Liquid | 280.36

Details | Molar enthalpy of transition or fusion [kcal/mol] | Triple point temperature [K]
[2] | – | 195.6
[3] | 2.512 | –
